For orientation: IC50 means the concentration needed to halve the response being measured.

Where only a bound is given, the exact number is not on record here.

The values below come from patent publication US20250320193A1, “OXOISOINDOLINYL SUBSTITUTED PIPERIDINEDIONE DERIVATIVE AND USE THEREOF” (GLUETACS THERAPEUTICS (SHANGHAI) CO., LTD., priority 2022, published 2025).

Assay [1] deals with human Cereblon WT GST-tagged protein (Homo sapiens (Human), UniProt Q96SW2). As to the kind of experiment: CRBN-binding affinity, HTRF (CEREBLON BINDING kit, CISBIO). As to conditions: HTRF inhibitory activity. An outline of the steps:
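HTRF competition format: test compound displaces Thalidomide-Red from GST-tagged human Cereblon WT, detected with a Eu-labelled anti-GST antibody. Percent CRBN binding inhibition was derived from the 620 nm signal, normalized to solvent-control and protein-free blank wells.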

Assay [2] deals with CCRF-CEM (human acute lymphoblastic leukemia T-cells). In words: Tumor cell proliferation inhibition, CCK-8. Format: cell-based. As to conditions: CCRF-CEM cells, CCK-8, read-out: inhibitory activity (IC50, nM) CCRF-CEM. The protocol:
(§1) The tumor cells used herein were cultured in a cell culture medium listed in table 2 at 37° C. in an incubator with 5% CO2. Prior to experimentation, all cells used were correctly identified by STR profiling, and tested negative for mycoplasma through routine screenings.
(§2) IC50 values of the compounds of the present disclosure (including the compounds in Table 1 and the Examples 1-305 compounds) were measured using the Meilun Cell Counting Kit-8 kit from Dalian Meilun Biotech Co., Ltd. Assay details are as follows: tumor cells were seeded in a 96-well plate at a density listed in Table 5. After 24 h, 100 μL of the inoculated cells were treated with 0.5 μL of the compounds of the present disclosure (including the compounds in Table 1 and the Examples 1-305 compounds) at 10 different successively decreasing concentrations (starting at the highest concentration of 10 μM; 5-fold serial dilutions). After the cells were treated with the compounds of the present disclosure for a period of time, the cell viability detection reagent was added to the culture medium for cell viability assessment according to the instructions provided with the CCK-8 kit. […] The growth inhibition of the compounds of the present disclosure on cells was plotted by Prism Graphpad software, and the IC50 values of the compounds of the present disclosure were calculated therefrom.

In the next assay the target is IKZF1 (Homo sapiens (Human), UniProt Q13422+Q96SW2). In words: Western blot, substrate protein expression in hPBMC: IKZF1. The class given is cell-based. To be noted: hPBMC, compound 500 nM, 24 hours, Western blot. An outline of the steps:
(§3)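 hPBMC, 1×10^6 cells/mL, 24 h compound exposure; RIPA lysis, BCA protein assay, SDS-PAGE, NC membrane immunoblot. Densitometry vs internal control → % protein remaining; degradation % = 100% − remaining; DC50 = conc. at 50% of DMSO band signal.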
(Immunoblotting shows a protein as a band on a membrane.)

The target of the next assay is IKZF3 (Homo sapiens (Human), UniProt Q96SW2+Q9UKT9). As to the kind of experiment: Western blot, substrate protein expression in hPBMC: IKZF3. Format: cell-based. As to conditions: hPBMC, compound 500 nM, 24 hours, Western blot. An outline of the steps:
as §3

The next assay concerns the target GSPT1 (Homo sapiens (Human), UniProt P15170+Q96SW2). In words: Western blot, substrate protein expression in hPBMC: GSPT1. The class given is cell-based. To be noted: hPBMC, compound 500 nM, 24 hours, Western blot. An outline of the steps: as §3
For assay [3], the system named is H146 cells (human small cell lung carcinoma cells). In words: Tumor cell proliferation inhibition, CCK-8. To be noted: NCI-H146, H146 cells, CCK-8, read-out: inhibitory activity (IC50, nM) H146. The class given is cell-based. The protocol:
as §1, §2

Assay [4] concerns MDA-MB-231 cells (human breast adenocarcinoma cells). In words: Tumor cell proliferation inhibition, CCK-8. Format: cell-based. To be noted: MDA-MB-231 cells, CCK-8, read-out: inhibitory activity (IC50, nM) MDA-MB-231. Here is the method:
as §1, §2

Assay [5] has as its system MM.1S cells (human multiple myeloma cells). As to the kind of experiment: Tumor cell proliferation inhibition, CCK-8. Format: cell-based. As to conditions: MM1.S, MM.1S cells, CCK-8, read-out: inhibitory activity (IC50, nM) MM.1S. Here is the method:
as §1, §2

The subject of assay [6] is TMD8 cells (human diffuse large B-cell lymphoma cells). As to the kind of experiment: Tumor cell proliferation inhibition, CCK-8. The class given is cell-based. As to conditions: TMD8 cells, CCK-8, read-out: inhibitory activity (IC50, nM) TMD8. Here is the method:
as §1, §2

Sequence of IKZF3 (Q9UKT9 whole entry): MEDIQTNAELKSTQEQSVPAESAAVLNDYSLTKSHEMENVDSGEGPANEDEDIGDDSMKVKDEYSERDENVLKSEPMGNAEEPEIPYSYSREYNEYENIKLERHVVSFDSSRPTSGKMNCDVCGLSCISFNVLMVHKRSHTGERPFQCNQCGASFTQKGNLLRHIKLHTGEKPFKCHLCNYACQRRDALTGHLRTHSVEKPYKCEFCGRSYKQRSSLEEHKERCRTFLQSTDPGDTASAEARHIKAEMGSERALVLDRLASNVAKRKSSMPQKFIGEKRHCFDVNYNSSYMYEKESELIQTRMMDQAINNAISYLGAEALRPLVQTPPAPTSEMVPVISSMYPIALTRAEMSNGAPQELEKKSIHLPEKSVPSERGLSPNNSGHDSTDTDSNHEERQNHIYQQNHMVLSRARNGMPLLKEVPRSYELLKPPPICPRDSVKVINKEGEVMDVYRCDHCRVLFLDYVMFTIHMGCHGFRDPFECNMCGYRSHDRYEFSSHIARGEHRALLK
Sequence of IKZF3 (Q96SW2 whole entry): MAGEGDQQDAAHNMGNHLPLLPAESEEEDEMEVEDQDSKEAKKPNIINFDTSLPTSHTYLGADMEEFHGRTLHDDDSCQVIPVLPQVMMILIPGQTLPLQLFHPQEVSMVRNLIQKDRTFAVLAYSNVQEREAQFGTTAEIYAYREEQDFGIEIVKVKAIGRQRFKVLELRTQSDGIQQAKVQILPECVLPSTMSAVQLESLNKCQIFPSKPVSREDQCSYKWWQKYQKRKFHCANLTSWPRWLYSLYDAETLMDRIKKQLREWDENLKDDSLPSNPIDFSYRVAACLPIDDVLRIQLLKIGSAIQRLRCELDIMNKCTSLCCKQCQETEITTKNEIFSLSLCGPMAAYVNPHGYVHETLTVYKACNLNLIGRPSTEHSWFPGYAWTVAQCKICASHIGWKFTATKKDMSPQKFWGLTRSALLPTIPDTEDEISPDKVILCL
Sequence of IKZF3 (Q16531 whole entry partner): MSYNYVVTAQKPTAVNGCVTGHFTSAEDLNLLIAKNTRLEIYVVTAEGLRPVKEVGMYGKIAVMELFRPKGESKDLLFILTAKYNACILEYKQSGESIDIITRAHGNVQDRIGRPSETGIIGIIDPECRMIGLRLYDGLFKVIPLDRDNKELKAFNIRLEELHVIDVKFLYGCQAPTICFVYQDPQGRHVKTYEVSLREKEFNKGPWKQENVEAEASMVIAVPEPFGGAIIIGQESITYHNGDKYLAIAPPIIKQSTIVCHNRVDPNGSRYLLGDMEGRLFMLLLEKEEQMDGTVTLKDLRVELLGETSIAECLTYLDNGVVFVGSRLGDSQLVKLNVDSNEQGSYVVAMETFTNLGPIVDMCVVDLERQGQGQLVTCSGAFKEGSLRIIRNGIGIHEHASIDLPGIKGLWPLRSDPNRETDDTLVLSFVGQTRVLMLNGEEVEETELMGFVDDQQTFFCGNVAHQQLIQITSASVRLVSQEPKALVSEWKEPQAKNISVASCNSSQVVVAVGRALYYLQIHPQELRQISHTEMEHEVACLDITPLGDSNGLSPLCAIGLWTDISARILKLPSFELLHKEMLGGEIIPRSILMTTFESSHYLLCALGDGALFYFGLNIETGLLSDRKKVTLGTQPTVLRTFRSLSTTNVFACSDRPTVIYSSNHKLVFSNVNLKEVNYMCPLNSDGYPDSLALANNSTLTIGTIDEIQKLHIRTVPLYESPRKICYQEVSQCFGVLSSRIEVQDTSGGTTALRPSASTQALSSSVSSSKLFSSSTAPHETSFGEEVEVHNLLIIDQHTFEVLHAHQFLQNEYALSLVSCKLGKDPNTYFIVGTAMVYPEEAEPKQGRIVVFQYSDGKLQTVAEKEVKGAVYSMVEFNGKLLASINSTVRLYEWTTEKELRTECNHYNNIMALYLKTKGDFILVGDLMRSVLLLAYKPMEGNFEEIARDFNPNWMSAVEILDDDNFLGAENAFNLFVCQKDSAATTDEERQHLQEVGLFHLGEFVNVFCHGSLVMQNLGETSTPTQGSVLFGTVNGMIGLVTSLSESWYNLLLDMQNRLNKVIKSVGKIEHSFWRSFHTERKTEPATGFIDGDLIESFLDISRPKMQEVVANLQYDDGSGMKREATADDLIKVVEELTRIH
Sequence of human Cereblon WT GST-tagged protein (Q96SW2 whole entry): as the sequence (Q96SW2 whole entry) above
Sequence of IKZF1 (Q13422 whole entry): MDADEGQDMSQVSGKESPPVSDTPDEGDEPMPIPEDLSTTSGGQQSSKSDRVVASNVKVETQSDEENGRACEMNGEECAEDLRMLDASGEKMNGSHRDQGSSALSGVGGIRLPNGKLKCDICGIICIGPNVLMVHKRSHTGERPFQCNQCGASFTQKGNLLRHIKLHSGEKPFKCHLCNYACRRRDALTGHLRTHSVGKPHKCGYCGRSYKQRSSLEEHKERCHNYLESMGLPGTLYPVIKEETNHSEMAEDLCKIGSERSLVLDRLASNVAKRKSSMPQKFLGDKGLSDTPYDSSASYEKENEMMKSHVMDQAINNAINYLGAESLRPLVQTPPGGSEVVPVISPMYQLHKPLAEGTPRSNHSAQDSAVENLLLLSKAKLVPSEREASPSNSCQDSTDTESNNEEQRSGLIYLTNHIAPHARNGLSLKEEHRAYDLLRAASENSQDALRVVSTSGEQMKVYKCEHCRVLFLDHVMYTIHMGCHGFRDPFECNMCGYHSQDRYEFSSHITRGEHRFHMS
Sequence of IKZF1 (Q96SW2 whole entry): as the sequence (Q96SW2 whole entry) above
Sequence of IKZF1 (Q16531 whole entry partner): as the sequence (Q16531 whole entry partner) above
Sequence of GSPT1 (P15170 whole entry): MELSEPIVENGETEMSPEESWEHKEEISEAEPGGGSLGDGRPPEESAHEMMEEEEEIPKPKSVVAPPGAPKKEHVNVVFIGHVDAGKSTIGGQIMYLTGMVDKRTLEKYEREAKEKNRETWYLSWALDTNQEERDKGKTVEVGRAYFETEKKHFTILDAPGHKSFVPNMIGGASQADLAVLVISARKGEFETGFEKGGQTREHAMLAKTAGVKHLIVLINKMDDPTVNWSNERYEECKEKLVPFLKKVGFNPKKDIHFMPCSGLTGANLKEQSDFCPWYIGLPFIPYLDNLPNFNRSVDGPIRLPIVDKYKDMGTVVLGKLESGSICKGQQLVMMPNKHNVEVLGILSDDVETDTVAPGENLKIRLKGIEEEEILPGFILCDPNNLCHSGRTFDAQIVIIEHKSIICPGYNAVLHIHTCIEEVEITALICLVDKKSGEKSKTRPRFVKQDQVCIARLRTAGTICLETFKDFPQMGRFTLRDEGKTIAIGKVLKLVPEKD
Sequence of GSPT1 (Q96SW2 whole entry): as the sequence (Q96SW2 whole entry) above
Sequence of GSPT1 (Q16531 whole entry partner): as the sequence (Q16531 whole entry partner) above

With `O=C1CCC(N2Cc3cc(CN4C5CCC4CN(C(c4ccccc4)c4ccccc4)C5)cc(F)c3C2=O)C(=O)N1` (centres unmarked) [GT-03840, 3-(5-((3-benzhydryl-3,8-diazabicyclo[3.2.1]octan-8-yl)methyl)-7-fluoro-1-oxoisoindolin-2-yl)piperidine-2,6-dione], the IC50 is 1 to 1.9 µM in assay [1] and 10 to 50 nM in assay [2].

With `O=C1CCC(N2Cc3cc(CN4C[C@@H]5C[C@H]4CN5C(c4ccccc4)c4ccccc4)c(F)cc3C2=O)C(=O)N1` (stereo partly drawn) [GT-05894, 3-(5-(((1S,4S)-5-benzhydryl-2,5-diazabicyclo[2.2.1]heptan-2-yl)methyl)-6-fluoro-1-oxoisoindolin-2-yl)piperidine-2,6-dione], the IC50 is under 0.5 µM in [1]; 10 to 50 nM in [3]; 50 to 100 nM in assay [4]; 1 to 10 nM in assay [5]; 500 to 1000 nM in assay [6]. In addition, the “substrate protein remaining % IKZF1” value at IKZF1 is recorded as “A (A represents 0% ≤ substrate protein remaining % ≤ 50%)”. At IKZF3, the “substrate protein remaining % IKZF3” value was “B (B represents substrate protein remaining % > 50%)”. Also, on GSPT1, the “substrate protein remaining % GSPT1” value is “A (A represents 0% ≤ substrate protein remaining % ≤ 50%)”.

Turning to `O=C1CCC(N2Cc3cc(CN4CCN(C5c6ccccc6-c6ccccc65)CC4)ccc3C2=O)C(=O)N1` (centres unmarked) [GT-05907, 3-(5-((4-(9H-fluoren-9-yl)piperazin-1-yl)methyl)-1-oxoisoindolin-2-yl)piperidine-2,6-dione], the half-maximal inhibitory concentration (IC50) in assay [1] is under 0.5 µM; in assay [3], 10 to 50 nM; in [4], 10 to 50 nM; in assay [5] it was 1 to 10 nM; in assay [6], 10 to 50 nM. Also, the “substrate protein remaining % IKZF1” value on IKZF1 is “A (A represents 0% ≤ substrate protein remaining % ≤ 50%)”. Besides, the “substrate protein remaining % IKZF3” value on IKZF3 is “A (A represents 0% ≤ substrate protein remaining % ≤ 50%)”. The “substrate protein remaining % GSPT1” value at GSPT1 is on record as “A (A represents 0% ≤ substrate protein remaining % ≤ 50%)”.

As for `O=C1CCC(N2Cc3cc(CN4CCN(C(c5ccccc5F)c5ccccc5F)CC4)ccc3C2=O)C(=O)N1` (centres unmarked) [GT-06084, 3-(5-((4-(bis(2-fluorophenyl)methyl)piperazin-1-yl)methyl)-1-oxoisoindolin-2-yl)piperidine-2,6-dione], the IC50 in assay [1] is under 0.5 µM; in assay [3], 10 to 50 nM; in assay [4], 10 to 50 nM; in assay [5], 1 to 10 nM; in assay [6], 10 to 50 nM. The “substrate protein remaining % IKZF1” value at IKZF1 is listed as “A (A represents 0% ≤ substrate protein remaining % ≤ 50%)”. The “substrate protein remaining % IKZF3” value at IKZF3 was “A (A represents 0% ≤ substrate protein remaining % ≤ 50%)”. The “substrate protein remaining % GSPT1” value at GSPT1 is “A (A represents 0% ≤ substrate protein remaining % ≤ 50%)”.

Regarding `O=C1CCC(N2Cc3c(ccc(CN4CCN(C(c5ccccc5F)c5ccccc5F)CC4)c3F)C2=O)C(=O)N1` (centres unmarked) [GT-06085, 3-(5-((4-(bis(2-fluorophenyl)methyl)piperazin-1-yl)methyl)-4-fluoro-1-oxoisoindolin-2-yl)piperidine-2,6-dione], the IC50 lay in the range of 0.5 to 1 µM in [1]; 10 to 50 nM in assay [3]; 10 to 50 nM in assay [4]; 1 to 10 nM in assay [5]; 10 to 50 nM in assay [6]. For the same compound, at IKZF1, the “substrate protein remaining % IKZF1” value is listed as “A (A represents 0% ≤ substrate protein remaining % ≤ 50%)”. The “substrate protein remaining % IKZF3” value at IKZF3 is “A (A represents 0% ≤ substrate protein remaining % ≤ 50%)”. In addition, the “substrate protein remaining % GSPT1” value on GSPT1 is “A (A represents 0% ≤ substrate protein remaining % ≤ 50%)”.

Consider `O=C1CCC(N2Cc3cc(CN4CCN(C(c5ccccc5F)c5ccccc5F)CC4)c(F)cc3C2=O)C(=O)N1` (centres unmarked) [GT-06086, 3-(5-((4-(bis(2-fluorophenyl)methyl)piperazin-1-yl)methyl)-6-fluoro-1-oxoisoindolin-2-yl)piperidine-2,6-dione], for which the IC50 in assay [1] fell in the range of 0.5 to 1 µM; in [3] it was 10 to 50 nM; in assay [4], 10 to 50 nM; in assay [5], 1 to 10 nM; in assay [6], 10 to 50 nM. In addition, at IKZF1, the “substrate protein remaining % IKZF1” value is listed as “A (A represents 0% ≤ substrate protein remaining % ≤ 50%)”. Also, the “substrate protein remaining % IKZF3” value on IKZF3 was “A (A represents 0% ≤ substrate protein remaining % ≤ 50%)”. At GSPT1, the “substrate protein remaining % GSPT1” value is recorded as “A (A represents 0% ≤ substrate protein remaining % ≤ 50%)”.

As for `O=C1CCC(N2Cc3cc(CN4CCN(C(c5ccccc5F)c5ccccc5F)CC4)cc(F)c3C2=O)C(=O)N1` (centres unmarked) [GT-06087, 3-(5-((4-(bis(2-fluorophenyl)methyl)piperazin-1-yl)methyl)-7-fluoro-1-oxoisoindolin-2-yl)piperidine-2,6-dione], the IC50 in assay [1] is under 0.5 µM; in assay [3], 50 to 100 nM; in assay [4], 100 to 500 nM; in assay [5], 10 to 50 nM; in assay [6], 100 to 500 nM. Further, the “substrate protein remaining % IKZF1” value at IKZF1 is “B (B represents substrate protein remaining % > 50%)”. Further, the “substrate protein remaining % IKZF3” value on IKZF3 is listed as “B (B represents substrate protein remaining % > 50%)”. For the same compound, at GSPT1, the “substrate protein remaining % GSPT1” value is listed as “A (A represents 0% ≤ substrate protein remaining % ≤ 50%)”.

For the compound `O=C1CCC(N2Cc3cc(C(=O)N4CCN(C(c5cccc(F)c5)c5cccc(F)c5)CC4)ccc3C2=O)C(=O)N1` (centres unmarked) [GT-06146, 3-(5-(4-(bis(3-fluorophenyl)methyl)piperazine-1-carbonyl)-1-oxoisoindolin-2-yl)piperidine-2,6-dione], the IC50 in assay [1] is under 0.5 µM; in [3], 100 to 500 nM; in [4], 100 to 500 nM; in [5] it was 10 to 50 nM; in assay [6], 500 to 1000 nM. In addition, on IKZF1, the “substrate protein remaining % IKZF1” value is reported as “A (A represents 0% ≤ substrate protein remaining % ≤ 50%)”. For the same compound, the “substrate protein remaining % IKZF3” value on IKZF3 is “A (A represents 0% ≤ substrate protein remaining % ≤ 50%)”. Also, the “substrate protein remaining % GSPT1” value at GSPT1 is recorded as “A (A represents 0% ≤ substrate protein remaining % ≤ 50%)”.

Turning to `O=C1CCC(N2Cc3cc(CN4CCN(C(c5cc(F)cc(F)c5)c5cc(F)cc(F)c5)CC4)ccc3C2=O)C(=O)N1` (centres unmarked) [GT-06387, 3-(5-((4-(bis(3,5-difluorophenyl)methyl)piperazin-1-yl)methyl)-1-oxoisoindolin-2-yl)piperidine-2,6-dione], the IC50 was 1 to 1.9 µM in assay [1]; 1 to 10 nM in assay [3]; 1 to 10 nM in [4]; under 1 nM in [5]; 1 to 10 nM in assay [6]. Also, the “substrate protein remaining % IKZF1” value at IKZF1 is on record as “B (B represents substrate protein remaining % > 50%)”. Further, the “substrate protein remaining % IKZF3” value at IKZF3 is “A (A represents 0% ≤ substrate protein remaining % ≤ 50%)”. At GSPT1, the “substrate protein remaining % GSPT1” value is recorded as “A (A represents 0% ≤ substrate protein remaining % ≤ 50%)”.

For the compound `O=C1CCC(N2Cc3cc(C(=O)N4CCN(C(c5cc(F)cc(F)c5)c5cc(F)cc(F)c5)CC4)ccc3C2=O)C(=O)N1` (centres unmarked) [GT-06597, 3-(5-(4-(bis(3,5-difluorophenyl)methyl)piperazine-1-carbonyl)-1-oxoisoindolin-2-yl)piperidine-2,6-dione], the IC50 in [1] lay in the range of 0.5 to 1 µM; in assay [3], 10 to 50 nM; in assay [4] it was 50 to 100 nM; in [5], 10 to 50 nM; in assay [6], 100 to 500 nM. Also, the “substrate protein remaining % IKZF1” value on IKZF1 is “A (A represents 0% ≤ substrate protein remaining % ≤ 50%)”. The “substrate protein remaining % IKZF3” value on IKZF3 is on record as “A (A represents 0% ≤ substrate protein remaining % ≤ 50%)”. Moreover, the “substrate protein remaining % GSPT1” value on GSPT1 is “A (A represents 0% ≤ substrate protein remaining % ≤ 50%)”.
